Test results as given in patent US11691965B2, “Method for preparing pyrrolidinyl urea derivative” (ZHANGZHOU PIEN TZE HUANG PHARMACEUTICAL CO., LTD., priority 2020, dated 2023).

Assays:
[1] = In vivo pharmacokinetics study after single administration in rats; set-up: species or system Sprague Dawley rats
Procedure: Experimental Example 3: In Vivo Pharmacokinetics Study after Single Administration in Rats
Male SD rats were used as the test animals, and the plasma concentrations of the compound were determined after a single administration and the pharmacokinetic behavior was evaluated.
Sprague Dawley rats (male, 200 to 300 g, 7 to 9 weeks old, Shanghai Charles River Laboratory Animal Co., LTD.)
Standard protocols were used to test the pharmacokinetic characteristics of the tested compounds in rodents after intravenous injection and oral administration, in the experiment, the tested compounds were prepared into a clear solution or a homogeneous suspension, and the rats were given a single intravenous injection and oral administration. In the intravenous injection group, the solvent was a certain proportion of ethanol and normal saline solution or a certain proportion of HP-β cyclodextrin solution of dimethyl sulfoxide (the pH was adjusted 3 to 4), the mixture was vortex-stirred to prepare 1 mg/mL clear solution and filtered by a microporous membrane for later use; oral solvent was a certain proportion of sodium carboxymethyl cellulose solution or a certain proportion of HP-β cyclodextrin solution of dimethyl sulfoxide (the pH was adjusted to above 4), after the compound to be tested was mixed with the solvent, the mixture was vortex-stirred to obtain a uniform suspension of 30 mg/mL for later use.
(§1) C0 is the initial concentration, T1/2 is the elimination half-life, Vdss is the steady-state apparent volume of distribution, Cl is the total clearance, and AUC0-inf is area under the plasma drug concentration-time curve from 0 time to extrapolation to infinity area, Cmax is the peak concentration, and Tmax is the peak time.

TrkA = TrkA (Homo sapiens (Human), UniProt P04629); test: TrkA enzyme activity test; format: biochemical
Procedure: Experimental Example 1: TrkA Enzyme Activity Test
TK detection kit Cisbio-62TK0PEJ
Detection plate PerkinElmer-6007299
Envision PerkinElmer-2104
20 mM Hepes (pH 7.5), 10 mM MgCl2 (magnesium chloride), 1 mM EGTA, 0.01% Brij35, 0.1 mM Orthovanadate (sodium vanadate), 0.02 g/mL BSA (bovine serum protein), 2 mM DTT (dithiothreitol), 1% DMSO
This experiment was performed using Cisbio's homogeneous time-resolved fluorescence conjugate energy transfer (HTRF® method) for activity detection. In the detection plate, enzyme, biotin-labeled peptide substrate, ATP and detection compound were mixed and incubated for reaction. […] The data were represented by fluorescence signal readings at 665 nm and 620 nm respectively, with a high ratio of 665 nm/620 nm indicating high activity and a low ratio of 665 nm/620 nm indicating inhibition of activity. […]
In a 10 μL reaction system with a buffer of 20 mM Hepes (pH 7.5), 10 mM MgCl2, 1 mM EGTA, 0.01% Brij35, 0.1 mM sodium vanadate, 0.02 g/mL BSA, 2 mM DTT, 1% DMSO medium, containing 15 nM TrkA kinase, 0.3 μM biotin-TK peptide (biotin-labeled tyrosine kinase substrate polypeptide), 100 μM ATP were incubated at 23° C. for 120 minutes. […]

CYP2C19 = CYP2C19 (Homo sapiens (Human), UniProt P33261); test: Cytochrome P450 isoenzyme inhibitory activity test (human liver microsomes); format: in vitro ADME; settings: heading: Cytochrome P450 isoenzyme IC50 CYP2C19, 37° C., 10 minutes
Procedure: (§2) Experimental Example 2: Cytochrome P450 Isoenzyme Inhibitory Activity Test The inhibitory activities of test compound against different isoforms of human cytochrome P450 isoenzymes were determined. The test compound, standard inhibitor (100×final concentration) and mixed substrate working solution were prepared; the microsome frozen in −80° C. refrigerator was taken out and thawed. 2 μL of the compound to be tested and standard inhibitor solution were added to the corresponding wells, and at the same time, 2 μL of the corresponding solvent was added to the non-inhibitor control wells (NIC) and the blank control wells; secondly, 20 μL of mixed substrate solution was added to the corresponding wells except the blank wells (20 μL of Pb was added to the blank wells); human liver microsome solution was prepared (the solution was put back in the refrigerator immediately after using and marking the date), and then 158 μL of human liver microsome solution was added to all wells; the sample plate was put in a 37° C. water bath for pre-incubation, and then a coenzyme factor (NADPH) solution was prepared; after 10 minutes, 20 μL of NADPH solution was added to all wells, the sample plate was shaken well, and incubated in a 37° C. water bath for 10 minutes; at the corresponding time point, 400 μL of cold acetonitrile solution (internal standard is 200 ng/mL tolbutamide and labetalol) was added to terminate the reaction; after the plates were evenly mixed, the mixture was centrifuged at 4000 rpm for 20 minutes to precipitate protein; 200 μL of supernatant was added into 100 μL of water, shaken well and detected by LC/MS/MS.

CYP2C9 = CYP2C9 (Homo sapiens (Human), UniProt P11712); test: as above; format: in vitro ADME; settings: heading: Cytochrome P450 isoenzyme IC50 CYP2C9, 37° C., 10 minutes
Procedure: as §2

CYP3A4 = CYP3A4 (Homo sapiens (Human), UniProt P08684); test: as above; format: in vitro ADME; settings: heading: Cytochrome P450 isoenzyme IC50 CYP3A4, 37° C., 10 minutes
Procedure: as §2

CYP2D6 = CYP2D6 (Homo sapiens (Human), UniProt P10635); test: as above; format: in vitro ADME; settings: heading: Cytochrome P450 isoenzyme IC50 CYP2D6, 37° C., 10 minutes
Procedure: as §2

[2] = In vivo pharmacokinetics study after single administration in Beagle dogs
Procedure: Experimental Example 4: In Vivo Pharmacokinetics Study after Single Administration in Beagle Dogs
Male Beagle dogs were used as the test animals, and the plasma concentrations of the compounds were determined after a single administration and the pharmacokinetic behavior was evaluated.
Beagle (male, 6 to 12 kg, more than 6 months old, Beijing Mars Biotechnology Co., Ltd.)
The purpose of the experiment was to test the pharmacokinetic characteristics of the tested compounds in non-rodents after intravenous injection and oral administration, in the experiment, the tested compounds were prepared into a clear solution or a homogeneous suspension, and the beagle dogs were given a single intravenous injection or oral administration. In the intravenous injection group, the solvent was a certain proportion of HP-β-cyclodextrin solution of dimethyl sulfoxide or a certain proportion of ethanol, and a normal saline solution of polyethylene glycol 400, vortexed and ultrasonicated to prepare a […] clear solution and filtered by microporous membrane for later use; oral solvent was a certain proportion of HP-β cyclodextrin solution of dimethyl sulfoxide or a certain proportion of sodium carboxymethyl cellulose solution, after the compound to be tested was mixed with the solvent, the solvent was vortexed and ultrasonicated to prepare a 3 mg/mL uniform suspension for later use.
as §1

CYP1A2 = CYP1A2 (Homo sapiens (Human), UniProt P05177); format: in vitro ADME; settings: microsomes, 10 min
Procedure: (§3) Experimental Example 2: Cytochrome P450 Isoenzyme Inhibitory Activity Test The inhibitory activities of test compound against different isoforms of human cytochrome P450 isoenzymes were determined. The test compound, standard inhibitor (100×final concentration) and mixed substrate working solution were prepared; the microsome frozen in −80° C. refrigerator was taken out and thawed. […]

[3] = tested on: human cytochrome P450 isoenzymes; test: Cytochrome P450 isoenzyme inhibitory activity test, overall conclusion; format: in vitro ADME; settings: human liver microsomes
Procedure: as §3

[4] = Sprague Dawley, rat, plasma, 2 mg/kg, male rats, 2 mpk intravenous injection
[5] = Sprague Dawley, rat, plasma, 300 mg/kg, male rats, 300 mpk oral
[6] = dog, plasma, 2 mg/kg, male Beagle dogs, 2 mpk intravenous injection
[7] = dog, plasma, 15 mg/kg, male Beagle dogs, 15 mpk oral

TrkA, sequence (P04629 440-796): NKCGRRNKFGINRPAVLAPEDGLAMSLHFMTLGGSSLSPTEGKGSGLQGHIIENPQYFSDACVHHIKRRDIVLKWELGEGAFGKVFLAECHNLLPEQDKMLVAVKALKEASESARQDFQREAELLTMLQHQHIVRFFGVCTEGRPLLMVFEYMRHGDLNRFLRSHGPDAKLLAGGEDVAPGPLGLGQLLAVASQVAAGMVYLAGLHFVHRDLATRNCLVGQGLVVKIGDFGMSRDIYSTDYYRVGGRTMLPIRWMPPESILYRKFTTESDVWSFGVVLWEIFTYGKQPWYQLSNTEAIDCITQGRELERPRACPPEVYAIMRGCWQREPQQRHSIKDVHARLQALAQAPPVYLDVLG
CYP3A4, sequence (P08684 whole entry): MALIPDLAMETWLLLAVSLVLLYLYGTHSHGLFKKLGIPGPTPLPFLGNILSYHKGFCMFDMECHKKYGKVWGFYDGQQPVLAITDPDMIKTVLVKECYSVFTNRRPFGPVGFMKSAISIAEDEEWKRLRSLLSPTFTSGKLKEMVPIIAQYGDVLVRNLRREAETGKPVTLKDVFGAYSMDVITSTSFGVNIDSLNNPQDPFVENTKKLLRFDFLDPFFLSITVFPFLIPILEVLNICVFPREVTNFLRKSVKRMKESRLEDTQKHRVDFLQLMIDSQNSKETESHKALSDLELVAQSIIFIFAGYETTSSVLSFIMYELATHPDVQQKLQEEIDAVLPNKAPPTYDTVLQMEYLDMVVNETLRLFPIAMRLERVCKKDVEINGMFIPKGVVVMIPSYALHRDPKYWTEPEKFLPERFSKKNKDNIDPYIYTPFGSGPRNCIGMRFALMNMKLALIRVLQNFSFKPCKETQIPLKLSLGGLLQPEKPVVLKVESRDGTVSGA
CYP2C19, sequence (P33261 whole entry, canonical isoform): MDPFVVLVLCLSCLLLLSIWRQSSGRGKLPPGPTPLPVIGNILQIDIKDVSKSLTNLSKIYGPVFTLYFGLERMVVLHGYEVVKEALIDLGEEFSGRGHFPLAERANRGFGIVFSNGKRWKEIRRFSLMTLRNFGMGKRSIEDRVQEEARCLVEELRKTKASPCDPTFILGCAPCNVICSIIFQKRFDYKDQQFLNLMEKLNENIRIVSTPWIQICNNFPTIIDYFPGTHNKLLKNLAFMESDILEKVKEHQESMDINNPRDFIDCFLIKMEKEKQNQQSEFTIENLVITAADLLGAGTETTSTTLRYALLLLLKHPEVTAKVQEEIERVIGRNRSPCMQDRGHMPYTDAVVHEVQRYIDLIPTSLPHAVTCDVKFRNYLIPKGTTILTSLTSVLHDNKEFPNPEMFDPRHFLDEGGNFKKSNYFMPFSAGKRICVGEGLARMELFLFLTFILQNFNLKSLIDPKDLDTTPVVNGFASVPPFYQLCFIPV
CYP1A2, sequence (P05177 whole entry, canonical isoform): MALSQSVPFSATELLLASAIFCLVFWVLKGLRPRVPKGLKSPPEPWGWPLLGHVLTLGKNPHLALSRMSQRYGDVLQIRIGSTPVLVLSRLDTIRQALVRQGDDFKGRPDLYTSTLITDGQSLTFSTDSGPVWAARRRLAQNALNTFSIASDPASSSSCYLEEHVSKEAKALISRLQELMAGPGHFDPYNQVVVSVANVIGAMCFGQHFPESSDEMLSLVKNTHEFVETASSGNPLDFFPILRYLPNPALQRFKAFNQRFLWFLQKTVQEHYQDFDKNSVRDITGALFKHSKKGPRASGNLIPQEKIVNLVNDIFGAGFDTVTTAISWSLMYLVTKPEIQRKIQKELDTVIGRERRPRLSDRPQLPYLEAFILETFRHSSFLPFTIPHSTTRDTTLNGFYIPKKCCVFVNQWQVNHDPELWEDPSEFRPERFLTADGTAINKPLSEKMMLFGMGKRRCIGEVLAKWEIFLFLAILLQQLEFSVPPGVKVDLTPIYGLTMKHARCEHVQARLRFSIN
CYP2D6, sequence (P10635 whole entry): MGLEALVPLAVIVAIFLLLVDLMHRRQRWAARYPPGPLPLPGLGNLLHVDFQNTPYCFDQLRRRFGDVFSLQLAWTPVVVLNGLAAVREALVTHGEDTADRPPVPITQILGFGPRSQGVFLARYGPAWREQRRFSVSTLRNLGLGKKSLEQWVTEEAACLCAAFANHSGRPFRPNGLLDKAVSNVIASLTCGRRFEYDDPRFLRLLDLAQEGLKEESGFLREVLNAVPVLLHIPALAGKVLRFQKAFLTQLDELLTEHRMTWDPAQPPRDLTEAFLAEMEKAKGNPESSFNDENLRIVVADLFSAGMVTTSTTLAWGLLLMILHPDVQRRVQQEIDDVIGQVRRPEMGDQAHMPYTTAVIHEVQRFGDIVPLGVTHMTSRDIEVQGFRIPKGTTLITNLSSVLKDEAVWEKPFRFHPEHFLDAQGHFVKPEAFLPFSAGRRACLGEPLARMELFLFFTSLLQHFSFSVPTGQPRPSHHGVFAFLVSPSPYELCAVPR
CYP2C9, sequence (P11712 whole entry): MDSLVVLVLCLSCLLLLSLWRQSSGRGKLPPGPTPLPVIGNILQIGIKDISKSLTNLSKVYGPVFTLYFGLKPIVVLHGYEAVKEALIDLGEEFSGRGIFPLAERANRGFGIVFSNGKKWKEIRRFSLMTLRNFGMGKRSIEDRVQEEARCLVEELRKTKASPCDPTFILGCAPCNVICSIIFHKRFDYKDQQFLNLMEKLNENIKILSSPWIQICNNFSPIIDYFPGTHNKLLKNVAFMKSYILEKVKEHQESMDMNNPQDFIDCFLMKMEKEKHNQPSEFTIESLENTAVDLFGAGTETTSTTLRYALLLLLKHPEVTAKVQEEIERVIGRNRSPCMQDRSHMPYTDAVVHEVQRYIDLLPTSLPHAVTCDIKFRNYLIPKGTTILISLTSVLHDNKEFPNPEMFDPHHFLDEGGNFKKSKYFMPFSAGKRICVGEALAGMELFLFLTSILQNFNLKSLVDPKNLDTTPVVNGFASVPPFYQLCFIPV

## COCCN1C[C@@H](n2ccc(F)c2)[C@H](NC(=O)Nc2c(C)c(-c3cnc(C4(F)COC4)nc3)nn2-c2ccccc2)C1 [Compounds of formula (1)]
[1]; [4]
  AUC(0-inf): 1970 ng·h/mL
  C0: 3620 ng/mL
  clearance: 17.1 mL/min/kg
  half-life: 0.61 h
[1]; Sprague Dawley, rat, plasma, 2 mg/kg, male rats, 2 mpk intravenous injection, read-out: Vdss
  Vd: 0.7 L/kg
[1]; [5]
  AUC(0-inf): 210000 ng·h/mL
  Cmax: 47600 ng/mL
  Tmax: 1.5 h
  bioavailability: 71.1%
  half-life: 1.7 h
[1]; rats
  pharmacokinetic properties and oral bioavailability (in words): good pharmacokinetic properties and oral bioavailability
TrkA
  inhibitory effect on TrkA enzyme (in words): significant inhibitory effect
TrkA; 15 nM TrkA kinase, 100 μM ATP, 23° C., 120 minutes, read-out: Trk AIC50
  IC50: 0.00664 µM
CYP2C19
  IC50: > 50 µM
CYP2C9
  IC50: 43.6 µM
CYP3A4
  IC50: > 50 µM
CYP2D6
  IC50: 31.7 µM
[2]; beagle dogs
  pharmacokinetic properties and oral bioavailability (in words): good pharmacokinetic properties and oral bioavailability
[2]; [6]
  AUC(0-inf): 1840 ng·h/mL
  C0: 3940 ng/mL
  clearance: 18.4 mL/min/kg
  half-life: 0.72 h
[2]; dog, plasma, 2 mg/kg, male Beagle dogs, 2 mpk intravenous injection, read-out: Vdss
  Vd: 0.71 L/kg
[2]; [7]
  AUC(0-inf): 12600 ng·h/mL
  Cmax: 4560 ng/mL
  Tmax: 1 h
  bioavailability: 91.3%
  half-life: 1.2 h
CYP1A2
  IC50: > 0.05 µM
[3]
  risk of drug-drug interaction (in words): lower risk of drug-drug interaction
